The text below walks through data of ChEMBL document CHEMBL2029217, “Design, synthesis, and structure-activity relationships of novel spiro-piperidines as acetyl-CoA carboxylase inhibitors” (Bioorg Med Chem Lett, 2012).

One data set concerns the target Acetyl-CoA carboxylase 1 (Homo sapiens, UniProt Q13085). Briefly: Inhibition of human ACC1 using acetyl-coA as substrate incubated for 60 mins prior to substrate addition measured after 20 mins by malachite green assay.
Data set [1] is described as follows: Lipophilicity, log D of the compound at pH 7.4. The settings on record: buffer.
The next data set has as its target Acetyl-CoA carboxylase 2 (Homo sapiens, UniProt O00763). As to the kind of experiment: Inhibition of human ACC2 using acetyl-coA as substrate incubated for 60 mins prior to substrate addition measured after 20 mins by malachite green assay.
Data set [2] is described as follows: Clearance in human hepatic microsomes assessed per mg protein at 1 uM after 20 mins by HPLC analysis. The format is ADME, Microsome. The following applies: liver microsomes, read-out: CLH. Background: Liver microsomes are vesicles of endoplasmic reticulum, rich in cytochrome P450 enzymes.
Data set [3] is described as follows: Oral bioavailability in Crl:CD(SD)(IGS) rat at 3 mg/kg. The format is ADME, organism-based. The following applies: in vivo.
The nature of data set [4]: Cmax in Crl:CD(SD)(IGS) rat at 3 mg/kg, po. The data set is classed as ADME, organism-based. Also on record: dose 3 mg/kg, route oral. The settings on record: in vivo.
Data set [5] in a line: Tmax in Crl:CD(SD)(IGS) rat at 3 mg/kg, po. Details: dose 3 mg/kg, route oral. The data set is classed as ADME, organism-based. The following applies: in vivo.
Data set [6] is described as follows: Volume of distribution at steady state in Crl:CD(SD)(IGS) rat at 1 mg/kg, iv. The format is ADME, organism-based. Also on record: dose 1 mg/kg, route intravenous. The following applies: in vivo, read-out: Vdss.
Data set [7] in a line: Total clearance in Crl:CD(SD)(IGS) rat at 1 mg/kg, iv. The format is ADME, organism-based. Also on record: dose 1 mg/kg, route intravenous. The settings on record: in vivo.
The nature of data set [8]: AUC in Crl:CD(SD)(IGS) rat at 3 mg/kg, po. The format is ADME, organism-based. Also on record: dose 3 mg/kg, route oral. The following applies: plasma.
Data set [9] can be described thus: Mean residence time in Crl:CD(SD)(IGS) rat at 1 mg/kg, iv. The following applies: in vivo. The data set is classed as ADME, organism-based. Also on record: dose 1 mg/kg, route intravenous.

Acetyl-CoA carboxylase 2, sequence (O00763 whole entry): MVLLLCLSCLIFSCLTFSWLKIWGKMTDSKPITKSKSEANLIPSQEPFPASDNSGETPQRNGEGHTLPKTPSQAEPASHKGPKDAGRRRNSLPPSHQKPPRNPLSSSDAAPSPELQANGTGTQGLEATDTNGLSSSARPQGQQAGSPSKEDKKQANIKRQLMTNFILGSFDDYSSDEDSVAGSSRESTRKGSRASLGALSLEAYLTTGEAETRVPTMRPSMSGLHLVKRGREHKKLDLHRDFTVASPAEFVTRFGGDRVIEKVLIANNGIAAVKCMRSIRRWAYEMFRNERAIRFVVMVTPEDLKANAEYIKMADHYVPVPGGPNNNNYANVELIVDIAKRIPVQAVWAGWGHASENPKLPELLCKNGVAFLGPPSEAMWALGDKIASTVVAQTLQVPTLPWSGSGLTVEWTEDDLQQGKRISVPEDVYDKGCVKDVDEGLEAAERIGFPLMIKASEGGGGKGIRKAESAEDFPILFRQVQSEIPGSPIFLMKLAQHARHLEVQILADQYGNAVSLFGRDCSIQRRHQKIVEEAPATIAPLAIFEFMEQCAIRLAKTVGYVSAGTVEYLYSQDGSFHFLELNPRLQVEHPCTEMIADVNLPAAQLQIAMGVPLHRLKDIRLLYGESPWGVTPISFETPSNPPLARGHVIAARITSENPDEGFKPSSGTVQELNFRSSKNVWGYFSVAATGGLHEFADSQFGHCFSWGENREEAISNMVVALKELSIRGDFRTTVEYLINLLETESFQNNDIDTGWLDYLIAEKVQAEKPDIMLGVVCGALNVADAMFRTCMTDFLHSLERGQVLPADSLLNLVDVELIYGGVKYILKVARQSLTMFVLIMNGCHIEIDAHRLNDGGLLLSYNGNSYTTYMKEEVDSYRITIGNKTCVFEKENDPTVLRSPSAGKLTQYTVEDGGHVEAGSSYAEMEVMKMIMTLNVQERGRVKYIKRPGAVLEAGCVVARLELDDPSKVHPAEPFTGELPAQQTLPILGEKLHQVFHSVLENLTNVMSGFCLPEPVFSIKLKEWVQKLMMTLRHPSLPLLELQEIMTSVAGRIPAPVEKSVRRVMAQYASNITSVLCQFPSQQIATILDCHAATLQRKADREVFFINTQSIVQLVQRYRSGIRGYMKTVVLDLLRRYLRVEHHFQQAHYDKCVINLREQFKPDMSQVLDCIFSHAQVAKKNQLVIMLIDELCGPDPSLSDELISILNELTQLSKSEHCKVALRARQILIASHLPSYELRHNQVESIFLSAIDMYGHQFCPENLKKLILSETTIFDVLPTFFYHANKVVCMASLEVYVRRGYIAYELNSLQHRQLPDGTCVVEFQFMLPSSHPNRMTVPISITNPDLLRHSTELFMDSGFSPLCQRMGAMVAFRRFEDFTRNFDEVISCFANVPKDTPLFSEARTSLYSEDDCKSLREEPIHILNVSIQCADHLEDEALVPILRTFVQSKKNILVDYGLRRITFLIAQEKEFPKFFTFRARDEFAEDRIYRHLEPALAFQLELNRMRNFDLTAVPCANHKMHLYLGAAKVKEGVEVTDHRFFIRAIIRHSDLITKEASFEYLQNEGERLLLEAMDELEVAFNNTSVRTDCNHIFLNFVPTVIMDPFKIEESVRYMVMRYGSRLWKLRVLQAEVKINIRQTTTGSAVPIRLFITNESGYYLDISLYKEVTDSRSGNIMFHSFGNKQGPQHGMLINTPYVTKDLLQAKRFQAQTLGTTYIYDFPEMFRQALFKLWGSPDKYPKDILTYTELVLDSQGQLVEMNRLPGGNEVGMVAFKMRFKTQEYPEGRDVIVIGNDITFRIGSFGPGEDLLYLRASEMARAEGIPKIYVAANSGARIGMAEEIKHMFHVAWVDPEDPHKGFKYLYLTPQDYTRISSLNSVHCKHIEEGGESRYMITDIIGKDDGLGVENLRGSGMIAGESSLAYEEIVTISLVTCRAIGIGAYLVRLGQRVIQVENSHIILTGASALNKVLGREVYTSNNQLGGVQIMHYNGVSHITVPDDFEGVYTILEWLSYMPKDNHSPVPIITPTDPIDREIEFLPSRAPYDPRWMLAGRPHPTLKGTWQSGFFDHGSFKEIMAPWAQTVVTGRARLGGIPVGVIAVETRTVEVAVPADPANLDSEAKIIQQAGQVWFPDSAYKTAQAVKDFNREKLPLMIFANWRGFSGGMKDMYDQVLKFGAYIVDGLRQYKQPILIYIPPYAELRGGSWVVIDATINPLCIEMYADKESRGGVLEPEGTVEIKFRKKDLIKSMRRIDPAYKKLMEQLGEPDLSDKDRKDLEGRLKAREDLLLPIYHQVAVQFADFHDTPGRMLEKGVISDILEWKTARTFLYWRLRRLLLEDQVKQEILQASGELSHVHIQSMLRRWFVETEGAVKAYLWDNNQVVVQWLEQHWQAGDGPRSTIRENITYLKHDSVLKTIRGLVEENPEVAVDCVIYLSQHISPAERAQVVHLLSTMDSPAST

For orientation: IC50 means the concentration at which inhibition is half-maximal. Lower therefore signals higher potency. By logD is commonly meant the decadic logarithm of the distribution of all forms, ionised or not, between an organic phase and buffer at a given pH. Lower therefore signals lower lipophilicity. Turning to `CCNC(=O)Nc1sc2cccnc2c1C(=O)N1CCC(N2CCCC3(C2)CC(C)(C)OC3=O)CC1` (racemic), the IC50 on Acetyl-CoA carboxylase 1 came out at 150 nM; on Acetyl-CoA carboxylase 2, 27 nM. For the same compound, in data set [1], the logD turned out to be 2.45. Besides, the microsomal CLint at 1 µM in data set [2] came to 120 µL/min/mg.

As to `CCN1C(=O)C2(CCCN(C3CCN(C(=O)c4c(NC(N)=O)sc5ccccc45)CC3)C2)N=C1C(C)C` (racemic), the IC50 is 80 nM against Acetyl-CoA carboxylase 1 and 17 nM on Acetyl-CoA carboxylase 2. This compound showed a logD in data set [1] of 2.43. The microsomal CLint at 1 µM in [2] turned out to be 230 µL/min/mg.

Turning to `CCC1=NC2(CCCN(C3CCN(C(=O)c4c(NC(N)=O)sc5ccccc45)CC3)C2)C(=O)N1CC` (racemic), the results for the IC50 at Acetyl-CoA carboxylase 1 and at Acetyl-CoA carboxylase 2 were 410 nM and 43 nM, respectively. In data set [1], the logD stood at 2.09. Also, in [2], the microsomal CLint at 1 µM is 150 µL/min/mg.

As to `CCNC(=O)Nc1sc2ccccc2c1C(=O)N1CCC(N2CCCC3(CC(=O)N(CC)C3=O)C2)CC1` (racemic), the IC50 at Acetyl-CoA carboxylase 1 was determined as 230 nM; against Acetyl-CoA carboxylase 2, 32 nM. The microsomal CLint at 1 µM in [2] amounted to 130 µL/min/mg.

`CCN1C(=O)OC2(CCCN(C3CCN(C(=O)c4c(NC(N)=O)sc5ccccc45)CC3)C2)C1=O` (racemic) had a logD in data set [1] of 1.85. In addition, the microsomal CLint at 1 µM in data set [2] worked out at 41 µL/min/mg.

As for `CCN1C(=O)C2(CCCN(C3CCN(C(=O)c4c(NC(N)=O)sc5ccccc45)CC3)C2)N=C1C` (racemic), the values for the 50% inhibitory concentration (IC50) on Acetyl-CoA carboxylase 1 and at Acetyl-CoA carboxylase 2 were 300 nM and 75 nM, respectively. This compound had a logD in [1] of 1.77. In addition, in data set [2], the microsomal CLint at 1 µM is 60 µL/min/mg.

As for `CCNC(=O)Nc1sc2ccccc2c1C(=O)N1CCC(N2CCC[C@@]3(C2)CC(C)(C)OC3=O)CC1`, the logD in [1] was 3.01. Moreover, the microsomal CLint at 1 µM in [2] turned out to be 230 µL/min/mg.

Consider `CCNC(=O)Nc1sc2ccccc2c1C(=O)N1CCC(N2CCCC3(CCNC3=O)C2)CC1` (racemic), for which the IC50 on Acetyl-CoA carboxylase 1 is 650 nM; at Acetyl-CoA carboxylase 2, 79 nM. The logD in data set [1] came out at 2.06. In addition, in data set [2], the microsomal CLint at 1 µM stood at 35 µL/min/mg.

For `CCNC(=O)Nc1sc2nccnc2c1C(=O)N1CCC(N2CCCC3(C2)CC(C)(C)OC3=O)CC1` (racemic), the values for the IC50 at Acetyl-CoA carboxylase 1 and on Acetyl-CoA carboxylase 2 were 150 nM and 37 nM, respectively. Besides, the logD in data set [1] turned out to be 2.32. Moreover, the microsomal CLint at 1 µM in [2] came out at 110 µL/min/mg.

As to `CCNC(=O)Nc1sc2ccccc2c1C(=O)N1CCC(N2CCCC3(CCN(C)C3=O)C2)CC1` (racemic), the IC50 on Acetyl-CoA carboxylase 1 was 510 nM; on Acetyl-CoA carboxylase 2, 64 nM. Also, the logD in data set [1] was found to be 2.23. Further, in data set [2], the microsomal CLint at 1 µM amounted to 45 µL/min/mg.

On to `CCNC(=O)Nc1sc2nc(C)ccc2c1C(=O)N1CCC(N2CCCC3(C2)NC(=O)N(C(C)C)C3=O)CC1` (racemic), for which the IC50 stood at 150 nM on Acetyl-CoA carboxylase 1 and 17 nM against Acetyl-CoA carboxylase 2. The compound further registered a logD in data set [1] of 2.39. Moreover, the microsomal CLint at 1 µM in [2] stood at 26 µL/min/mg.

For `CCNC(=O)Nc1sc2ccccc2c1C(=O)N1CCC(N2CCCC3(C2)CC(C)(C)OC3=O)CC1` (racemic), the logD in data set [1] is 3.01. Moreover, the microsomal CLint at 1 µM in data set [2] stood at 180 µL/min/mg.

`CCNC(=O)Nc1sc2nc(C)ccc2c1C(=O)N1CCC(N2CCC[C@]3(CCN(C(C)C)C3=O)C2)CC1`: the results for the IC50 at Acetyl-CoA carboxylase 1 and on Acetyl-CoA carboxylase 2 were 93 nM and 9 nM, respectively. Also, the logD in [1] was 2.43. Also, the microsomal CLint at 1 µM in [2] came to 45 µL/min/mg.

For the compound `CCNC(=O)Nc1sc2nc(C)ccc2c1C(=O)N1CCC(N2CCCC3(C2)N=C(C)N(C(C)C)C3=O)CC1` (stereo not given), the figures for the IC50 against Acetyl-CoA carboxylase 1 and on Acetyl-CoA carboxylase 2 were 76 nM and 15 nM, respectively. In data set [1], this compound gave a logD of 2.27. Also, the microsomal CLint at 1 µM in data set [2] turned out to be 47 µL/min/mg.

For orientation: bioavailability means dose-corrected exposure relative to a reference, in per cent. A lower bioavailability goes with little systemic uptake. For orientation: Cmax means the peak of the concentration-time curve. Usually Tmax stands for the time from dosing to the highest level. What is called clearance is the rate of elimination divided by the concentration. In general, AUC refers to concentration integrated over time. Higher therefore signals high exposure. In general, MRT refers to a mean duration of stay, worked out from the concentration-time curve. Take `CNC(=O)Nc1sc2nc(C)ccc2c1C(=O)N1CCC(N2CCC[C@]3(CC(=O)N(C(C)C)C3=O)C2)CC1`: the bioavailability in data set [3] came to 45%. The same compound gave a Cmax in data set [4] of 440 ng/mL. Also, in data set [5], the Tmax was determined as 30 min. In addition, the Vd in [6] is 1.3 L/kg. In addition, the figures for the IC50 against Acetyl-CoA carboxylase 1 and at Acetyl-CoA carboxylase 2 were 160 nM and 8.5 nM, respectively. Besides, the logD in [1] was 2.51. The same compound gave a clearance in data set [7] of 15.8 mL/min/kg. This compound also yielded an AUC in data set [8] of 1400 ng·h/mL. The MRT in [9] was determined as 78 min. Besides, the microsomal CLint at 1 µM in [2] is 33 µL/min/mg.

`CNC(=O)Nc1sc2nc(C)ccc2c1C(=O)N1CCC(N2CCC[C@@]3(C2)CC(C)(C)OC3=O)CC1`: the values for the half-maximal inhibitory concentration (IC50) at Acetyl-CoA carboxylase 1 and at Acetyl-CoA carboxylase 2 were 48 nM and 4.4 nM, respectively. The compound also gave a logD in data set [1] of 2.18. Also, the microsomal CLint at 1 µM in data set [2] was 90 µL/min/mg.

Take `CNC(=O)Nc1sc2ccccc2c1C(=O)N1CCC(N2CCCC3(CCN(C(C)C)C3=O)C2)CC1` (racemic): the concentration for half-maximal inhibition (IC50) against Acetyl-CoA carboxylase 1 was found to be 120 nM; against Acetyl-CoA carboxylase 2, 18 nM. In [1], this compound showed a logD of 2.61. Also, in [2], the microsomal CLint at 1 µM was 66 µL/min/mg.

For `CCNC(=O)Nc1sc2ncccc2c1C(=O)N1CCC(N2CCCC3(C2)CC(C)(C)OC3=O)CC1` (racemic), the IC50 on Acetyl-CoA carboxylase 1 was 110 nM; against Acetyl-CoA carboxylase 2, 16 nM. The compound also showed a logD in data set [1] of 2.08. Further, the microsomal CLint at 1 µM in data set [2] amounted to 110 µL/min/mg.

For the compound `CCNC(=O)Nc1sc2ccccc2c1C(=O)N1CCC(N2CCCC3(C2)C(=O)N(CC)C(=O)N3C)CC1` (racemic), the concentration for half-maximal inhibition (IC50) against Acetyl-CoA carboxylase 1 stood at 360 nM; against Acetyl-CoA carboxylase 2 it was 51 nM. This compound gave a logD in data set [1] of 2.79. Besides, the microsomal CLint at 1 µM in data set [2] was determined as 190 µL/min/mg.

As to `CCNC(=O)Nc1sc2nc(C)ccc2c1C(=O)N1CCC(N2CCCC3(C2)CC(C)(C)OC3=O)CC1` (racemic), the 50% inhibitory concentration (IC50) was found to be 78 nM on Acetyl-CoA carboxylase 1 and 14 nM on Acetyl-CoA carboxylase 2. The compound also showed a logD in data set [1] of 2.49. Moreover, in data set [2], the microsomal CLint at 1 µM was 79 µL/min/mg.

Regarding `CCN1C(=O)CC2(CCCN(C3CCN(C(=O)c4c(NC(N)=O)sc5ccccc45)CC3)C2)C1=O` (stereo not given), the IC50 came to 350 nM against Acetyl-CoA carboxylase 1 and 23 nM against Acetyl-CoA carboxylase 2. The compound further registered a logD in data set [1] of 2.2. Also, in [2], the microsomal CLint at 1 µM stood at 64 µL/min/mg.

Turning to `CCNC(=O)Nc1sc2nc(C)ccc2c1C(=O)N1CCC(N2CCCC3(C2)OC(=O)N(C(C)C)C3=O)CC1` (stereo not given), the IC50 at Acetyl-CoA carboxylase 1 was determined as 160 nM; at Acetyl-CoA carboxylase 2 it was 15 nM. The compound further yielded a logD in [1] of 2.39. Moreover, the microsomal CLint at 1 µM in data set [2] turned out to be 38 µL/min/mg.

Take `CCNC(=O)Nc1sc2ccccc2c1C(=O)N1CCC(N2CCCC3(C2)NC(=O)N(CC)C3=O)CC1` (racemic): the IC50 was 280 nM on Acetyl-CoA carboxylase 1 and 22 nM on Acetyl-CoA carboxylase 2. In data set [1], this compound returned a logD of 2.44. Moreover, the microsomal CLint at 1 µM in data set [2] came out at 110 µL/min/mg.

Consider `CCNC(=O)Nc1sc2ccccc2c1C(=O)N1CCC(N2CCCC3(C2)OC(=O)N(CC)C3=O)CC1` (racemic), for which the IC50 came out at 190 nM against Acetyl-CoA carboxylase 1 and 40 nM on Acetyl-CoA carboxylase 2. The compound further had a logD in [1] of 2.47. Also, the microsomal CLint at 1 µM in data set [2] amounted to 98 µL/min/mg.

For `CCNC(=O)Nc1sc2ccccc2c1C(=O)N1CCC(N2CCCC3(CCN(CC)C3=O)C2)CC1` (racemic), the IC50 stood at 350 nM against Acetyl-CoA carboxylase 1 and 33 nM against Acetyl-CoA carboxylase 2. The compound also had a logD in data set [1] of 2.62. Also, the microsomal CLint at 1 µM in data set [2] came out at 71 µL/min/mg.
